# Assay results reported in ChEMBL document CHEMBL1201862, “PubChem BioAssay data set” (2004).
#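 Cultured in 96-well plates, cells were exposed to test compound for 48 hours across five concentrations. GI50: concentration for 50% inhibition of growth.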 Activity calls are given as the source filed them. Cut-off read from the data, not from the text of the source: active = GI50 up to about 1.1 µM and inactive = higher.
# Tests used:
# Test in all cases: NCI tumour cell line growth inhibition, 48 h
# A498 = tested on: A498
# MDA-MB-231 = tested on: MDA-MB-231
# NCI-H23 = tested on: NCI-H23
# NCI-H460 = tested on: NCI-H460
# MOLT-4 = tested on: MOLT-4
# SF-268 = tested on: SF-268
# T47D = tested on: T47D
# KM12 = tested on: KM12
# M14 = tested on: M14
# K562 = tested on: K562
# OVCAR-3 = tested on: OVCAR-3
# SNB-75 = tested on: SNB-75
# EKVX = tested on: EKVX
# OVCAR-5 = tested on: OVCAR-5
# COLO 205 = tested on: COLO 205
# SF-295 = tested on: SF-295
# Hs-578T = tested on: Hs-578T
# SW-620 = tested on: SW-620
# CAKI-1 = tested on: CAKI-1
# SK-MEL-5 = tested on: SK-MEL-5
# ACHN = tested on: ACHN
# MDA-N = tested on: MDA-N
# SR = tested on: SR
# SK-OV-3 = tested on: SK-OV-3
# NCI-H522 = tested on: NCI-H522
# 786-0 = tested on: 786-0
# HCC 2998 = tested on: HCC 2998
# IGROV-1 = tested on: IGROV-1
# MDA-MB-435 = tested on: MDA-MB-435
# HT-29 = tested on: HT-29
# NCI/ADR-RES = tested on: NCI/ADR-RES
# SN12C = tested on: SN12C
# HL-60 = tested on: HL-60
# RPMI-8226 = tested on: RPMI-8226
# UACC-257 = tested on: UACC-257
# NCI-H226 = tested on: NCI-H226
# SF-539 = tested on: SF-539
# BT-549 = tested on: BT-549
# UACC-62 = tested on: UACC-62
# HCT-116 = tested on: HCT-116
# SNB-19 = tested on: SNB-19
# Malme-3M = tested on: Malme-3M
# OVCAR-8 = tested on: OVCAR-8
# DU-145 = tested on: DU-145
# HOP-92 = tested on: HOP-92
# MCF7 = tested on: MCF7
# TK-10 = tested on: TK-10
# RXF 393 = tested on: RXF 393
# LOX IMVI = tested on: LOX IMVI
# HCT-15 = tested on: HCT-15
# HOP-62 = tested on: HOP-62
# CCRF-CEM = tested on: CCRF-CEM
# A549 = tested on: A549
# U-251 = tested on: U-251
# PC-3 = tested on: PC-3
# SK-MEL-28 = tested on: SK-MEL-28
# SK-MEL-2 = tested on: SK-MEL-2
# OVCAR-4 = tested on: OVCAR-4
structure (smiles),measurement,setting,value
OC(CC(CC(O)(C(F)(F)F)C(F)(F)F)=NN=C(CC(O)(C(F)(F)F)C(F)(F)F)CC(O)(C(F)(F)F)C(F)(F)F)(C(F)(F)F)C(F)(F)F,GI50,A498,> 10 µM (inactive)
same,GI50,MDA-MB-231,> 10 µM (inactive)
same,GI50,NCI-H23,> 10 µM (inactive)
same,GI50,NCI-H460,> 10 µM (inactive)
same,GI50,MOLT-4,> 10 µM (inactive)
same,GI50,SF-268,> 10 µM (inactive)
same,GI50,T47D,> 10 µM (inactive)
same,GI50,KM12,> 10 µM (inactive)
same,GI50,M14,> 10 µM (inactive)
same,GI50,K562,> 10 µM (inactive)
same,GI50,OVCAR-3,> 10 µM (inactive)
same,GI50,SNB-75,> 10 µM (inactive)
same,GI50,EKVX,> 10 µM (inactive)
same,GI50,OVCAR-5,> 10 µM (inactive)
same,GI50,COLO 205,> 10 µM (inactive)
same,GI50,SF-295,> 10 µM (inactive)
same,GI50,Hs-578T,> 10 µM (inactive)
same,GI50,SW-620,> 10 µM (inactive)
same,GI50,CAKI-1,> 10 µM (inactive)
same,GI50,SK-MEL-5,> 10 µM (inactive)
same,GI50,ACHN,> 10 µM (inactive)
same,GI50,MDA-N,> 10 µM (inactive)
same,GI50,SR,> 10 µM (inactive)
same,GI50,SK-OV-3,> 10 µM (inactive)
same,GI50,NCI-H522,> 10 µM (inactive)
same,GI50,786-0,> 10 µM (inactive)
same,GI50,HCC 2998,> 10 µM (inactive)
same,GI50,IGROV-1,> 10 µM (inactive)
same,GI50,MDA-MB-435,> 10 µM (inactive)
same,GI50,HT-29,> 10 µM (inactive)
same,GI50,NCI/ADR-RES,> 10 µM (inactive)
same,GI50,SN12C,> 10 µM (inactive)
same,GI50,HL-60,> 10 µM (inactive)
same,GI50,RPMI-8226,> 10 µM (inactive)
same,GI50,UACC-257,> 10 µM (inactive)
same,GI50,NCI-H226,> 10 µM (inactive)
same,GI50,SF-539,> 10 µM (inactive)
same,GI50,BT-549,> 10 µM (inactive)
same,GI50,UACC-62,> 10 µM (inactive)
same,GI50,HCT-116,> 10 µM (inactive)
same,GI50,SNB-19,> 10 µM (inactive)
same,GI50,Malme-3M,> 10 µM (inactive)
same,GI50,OVCAR-8,> 10 µM (inactive)
same,GI50,DU-145,> 10 µM (inactive)
same,GI50,HOP-92,> 10 µM (inactive)
same,GI50,MCF7,> 10 µM (inactive)
same,GI50,TK-10,> 10 µM (inactive)
same,GI50,RXF 393,> 10 µM (inactive)
same,GI50,LOX IMVI,> 10 µM (inactive)
same,GI50,HCT-15,> 10 µM
same,GI50,HOP-62,> 10 µM (inactive)
same,GI50,CCRF-CEM,> 10 µM (inactive)
same,GI50,A549,> 10 µM (inactive)
same,GI50,U-251,> 10 µM (inactive)
same,GI50,PC-3,> 10 µM (inactive)
same,GI50,SK-MEL-28,> 10 µM (inactive)
same,GI50,SK-MEL-2,> 10 µM (inactive)
same,GI50,OVCAR-4,> 10 µM (inactive)
